From publication PMC8890100 (Chemical Science, 2022)

Tests used:
PPARγ–LBD = target: T1, PPARγ–LBD (Homo sapiens, UniProt P37231); experiment: 2D fluorescence anisotropy; format: binding; conditions: ligand excess vs no ligand
T1 sequence (P37231 238-503 limits assumed): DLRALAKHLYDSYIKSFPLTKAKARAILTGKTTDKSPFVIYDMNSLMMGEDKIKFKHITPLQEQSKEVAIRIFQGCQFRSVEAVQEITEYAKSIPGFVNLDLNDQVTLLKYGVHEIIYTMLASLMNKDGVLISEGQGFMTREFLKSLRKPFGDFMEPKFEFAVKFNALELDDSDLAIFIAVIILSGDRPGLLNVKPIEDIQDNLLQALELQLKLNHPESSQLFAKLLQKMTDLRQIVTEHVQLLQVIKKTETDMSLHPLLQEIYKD

PPARγ·MED1 = PPARγ·MED1 (Homo sapiens, UniProt P37231); experiment: 2D-ITC of ligand to PPARγ in the presence of MED1 in cell and syringe; format: binding; conditions: for cooperativity value α: ITC, PPARγ·ligand·MED1 complex; for −TΔΔS: cooperative effect of MED1 on ligand binding

EC50 shift (fold enhancement of PPARγ/MED1 EC50) (PPARγ–LBD)	cooperativity value α (PPARγ·MED1)	−TΔΔS (PPARγ·MED1) [kcal/mol]	ΔH (PPARγ·MED1; ligand binding to PPARγ in the presence of MED1) [kcal/mol]	SMILES
smaller EC50 shift				CC[C@@H](Oc1cccc(CN(CCCOc2ccc(OC)cc2)c2nc3ccccc3o2)c1)C(=O)O [Pemafibrate]
	28	-2.3		CN(CCOc1ccc(CC2SC(=O)NC2=O)cc1)c1ccccn1 (centres unmarked) [Rosiglitazone]
smaller EC50 shift				CCCc1nc2c(C)cc(-c3nc4ccccc4n3C)cc2n1Cc1ccc(-c2ccccc2C(=O)O)cc1 [Telmisartan]
24 fold	18	-3.5	21.0	CCO[C@@H](Cc1ccc(OCCc2ccc(OS(C)(=O)=O)cc2)cc1)C(=O)O [Tesaglitazar]
